Assay results: paper PMC4744544 (Analytical biochemistry, 2015)

Assays:
Dgt = biological target: T1, Dgt (Escherichia coli, UniProt P15723); assay: discontinuous HPLC of deoxyguanosine, Michaelis-Menten fit; format: biochemical; conditions: 20 mM Tris-HCl pH 8.0; 5 mM MgCl2; 30 °C; Dgt 0.2 nM hexamer
T1 sequence (P15723 2-505): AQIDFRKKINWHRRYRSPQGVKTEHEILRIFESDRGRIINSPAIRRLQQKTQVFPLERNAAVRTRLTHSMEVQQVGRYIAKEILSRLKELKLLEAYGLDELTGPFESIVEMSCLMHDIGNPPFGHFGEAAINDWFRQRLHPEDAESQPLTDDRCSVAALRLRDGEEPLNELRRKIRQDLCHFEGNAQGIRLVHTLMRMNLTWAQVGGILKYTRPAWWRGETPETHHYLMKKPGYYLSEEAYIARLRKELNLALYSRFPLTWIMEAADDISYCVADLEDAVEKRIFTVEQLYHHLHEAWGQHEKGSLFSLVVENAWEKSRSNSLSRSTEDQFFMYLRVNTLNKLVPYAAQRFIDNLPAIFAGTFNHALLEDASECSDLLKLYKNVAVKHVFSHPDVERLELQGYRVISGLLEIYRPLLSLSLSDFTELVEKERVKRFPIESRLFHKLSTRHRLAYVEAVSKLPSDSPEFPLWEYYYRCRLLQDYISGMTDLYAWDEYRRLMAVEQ

[1] = tested on: Purine Nucleoside Phosphorylase (PNPase; EC 2.4.2.1); assay: XOD-coupled absorbance at […] nm, initial velocities, Michaelis-Menten fit; format: biochemical; conditions: 100 mM Tris-HCl pH 8; 5 mM KH2PO4; PNPase 50 mU/mL; XOD 500 mU/mL as coupling enzyme

Km [1]	Structure (SMILES)	Km (Dgt)
–	Nc1nc2c(ncn2[C@H]2C[C@H](O)[C@@H](COP(=O)(O)OP(=O)(O)OP(=O)(O)O)O2)c(=O)[nH]1 [dGTP]	the best fit to the data is a simple Michaelis-Menten curve
110 ± 13 µM	Nc1nc2c(ncn2[C@H]2C[C@H](O)[C@@H](CO)O2)c(=O)[nH]1 [deoxyguanosine]	–
